Tests used:
5-HT1a receptor = target: T1, 5-HT1a receptor (Homo sapiens, UniProt P08908); details: relative to 5-HT1b; cited from earlier work
T1 sequence (P08908 1-422): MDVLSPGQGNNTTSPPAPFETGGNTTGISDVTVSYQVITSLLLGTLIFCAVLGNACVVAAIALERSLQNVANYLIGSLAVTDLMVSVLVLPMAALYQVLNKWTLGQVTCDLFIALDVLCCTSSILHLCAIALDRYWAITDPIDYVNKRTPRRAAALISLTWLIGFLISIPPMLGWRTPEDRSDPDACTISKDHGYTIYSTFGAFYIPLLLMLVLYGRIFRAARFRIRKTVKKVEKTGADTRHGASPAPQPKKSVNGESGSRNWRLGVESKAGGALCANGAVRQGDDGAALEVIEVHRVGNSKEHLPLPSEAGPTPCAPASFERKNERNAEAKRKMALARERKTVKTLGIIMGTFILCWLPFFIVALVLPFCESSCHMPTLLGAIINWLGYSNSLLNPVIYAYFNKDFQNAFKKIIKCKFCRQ

dopamine receptors = details: cited from earlier work
5-HT1d receptor = details: compared with serotonin; cited from earlier work
[1] = system: Parkinson's patients with L-DOPA induced dyskinesias; assay: Levodopa challenge-dose study, UPDRS-III rating of parkinsonian symptoms (L-DOPA efficacy); type: in vivo, human
Excerpt: (§1) This example describes a multicenter, randomized, double-blind, placebo-controlled, dose finding study of oral eltoprazine in Parkinson's patients with L-DOPA induced dyskinesias, in a levodopa challenge-dose setting in Parkinson's Disease. A total of 22 patients participated in the study, out of which 18 patients fulfilled the protocol in terms of eligibility, interventions, and outcome assessment. […]
During each of five visits, and after a two-hour fast, each patient received a challenge dosage (150%—up to a maximum of 250 mg) of levodopa. […] The patients were periodically recorded for 180 minutes after treatment, and the videos were evaluated in a blinded manner. […]
Filming occurred 30 minutes prior to, and every 30 minutes up to 180 minutes after a challenge test of L-DOPA and study medication. […] Video taped records of each sequence were assessed by separate individual qualified raters at both of the two clinical centers.
Analyses were done on both the intention-to-treat (ITT) and per protocol (PP) population, if applicable. The change between test sessions of the highest observed Unified Parkinson's Disease Rating Scale-III (UPDRS) within each session will be calculated between the randomised placebo test session and each active test session and will be analysed with Wilcoxon Signed Rank test on the ITT population.

[2] = system: Parkinson's patients with L-DOPA induced dyskinesias; assay: Safety and tolerability of eltoprazine in the levodopa challenge-dose study; type: in vivo, human; details: single oral doses of 2.5 mg, 5 mg, 7.5 mg
Excerpt: as §1

[3] = system: Parkinson's patients with L-DOPA induced dyskinesias; assay: Levodopa challenge-dose study of oral eltoprazine, dyskinesia ratings (CDRS, Rush DRS); type: in vivo, human; details: for levodopa-induced dyskinesia (LID) measured by the CDRS scale: compared to placebo
Excerpt: This example describes a multicenter, randomized, double-blind, placebo-controlled, dose finding study of oral eltoprazine in Parkinson's patients with L-DOPA induced dyskinesias, in a levodopa challenge-dose setting in Parkinson's Disease. A total of 22 patients participated in the study, out of which 18 patients fulfilled the protocol in terms of eligibility, interventions, and outcome assessment.
This study also assessed the safety and tolerability of eltoprazine in adults with Parkinson's Disease using the following measures: a) population mean values for the change in dyskinesia ratings between the placebo and screening baseline values and any of the eltoprazine dosages used, calculated as the peak-effect on CDRS of any study medication; b) population mean values for the change in dyskinesia ratings between the placebo and screening baseline values and any of the eltoprazine dosages used, calculated as the AuC on Rush DRS of any study medication; c) any changes in the UPDRS-III total score; d) any change in the diary data set, between the baseline and placebo and any of the three study medication tests; e) any deterioration of the HADS scores after study medication compared with placebo; f) any development of depression over the course of the study period, determined by the Montgomery Asberg Depression Rating Scale (MADRS) and clinical judgment; g) comparison between the effects on Rush Dyskinesia Rating Scale (DRS) and Clinical Dyskinesia Rating Scale (CDRS) Area under the Curve (AuC) and peak of dose effects for the three study medication dosages.
During the first visit, patients underwent screening for inclusion/exclusion criteria and safety assessments. Symptoms of parkinsonism, depression, and anxiety were assessed, and screening for significant L-DOPA dyskinesias were conducted using a challenge dose (150%) of L-DOPA. Subjects who were taking a prohibited medication were required to complete a washout period of appropriate length, as determined by the investigator. […]

5-HT1b receptor = 5-HT1b receptor (Homo sapiens, UniProt P28222); details: relative to 5-HT1a; cited from earlier work
5-HT1 = details: with respect to all receptors other than 5-HT1; cited from earlier work

Chain of 5-HT1b receptor (P28222 whole entry): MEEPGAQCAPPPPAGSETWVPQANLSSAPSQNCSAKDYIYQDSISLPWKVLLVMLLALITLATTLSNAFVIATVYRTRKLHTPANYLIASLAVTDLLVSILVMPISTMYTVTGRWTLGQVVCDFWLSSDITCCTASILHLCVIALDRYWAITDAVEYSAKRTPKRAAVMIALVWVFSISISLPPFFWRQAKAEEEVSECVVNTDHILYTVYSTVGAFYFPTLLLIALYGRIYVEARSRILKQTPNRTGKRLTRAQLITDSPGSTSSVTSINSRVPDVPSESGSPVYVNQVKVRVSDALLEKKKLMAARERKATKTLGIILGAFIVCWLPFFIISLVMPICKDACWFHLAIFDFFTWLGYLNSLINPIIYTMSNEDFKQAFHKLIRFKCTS

Structure (SMILES): c1cc2c(c(N3CCNCC3)c1)OCCO2 [eltoprazine, 1-(2,3-dihydro-1,4-benzodioxanyl-5-yl) piperazine]
- agonism and affinity at the 5-HT1a receptor (5-HT1a receptor): mixed 5-HT1a/5-HT1b receptor agonist with roughly equipotent affinity
- affinity for dopamine receptors (dopamine receptors): no relevant affinity for dopamine receptors
- affinity for the 5-HT1d receptor (5-HT1d receptor): lower affinity for the 5-HT1d receptor
- L-DOPA efficacy as measured by the UPDRS score ([1]; 5 mg and 7.5 mg doses): did not affect L-DOPA efficacy
- change in UPDRS-III of parkinsonian symptoms after eltoprazine administration ([1]; FIG. 2): no significant change
- serious adverse events [2]: no serious adverse events
- tolerability [2]: well tolerated
- LID as measured by the Rush Scale AUC ([3]; 5 mg single oral dose): reduced LID in PD patients statistically significantly
- levodopa-induced dyskinesia (LID) measured by the CDRS scale ([3]; 5 mg single oral dose, p=0.0007, L-DOPA challenge dose 150%): statistically significantly reduced LID
- levodopa-induced dyskinesia (LID) measured by the CDRS scale ([3]; 7.5 mg single oral dose, p=0.0467, L-DOPA challenge dose 150%): statistically significantly reduced LID
- agonism and affinity at the 5-HT1b receptor (5-HT1b receptor): mixed 5-HT1a/5-HT1b receptor agonist with roughly equipotent affinity
- binding selectivity (5-HT1): selective 5-HT1 ligand

Source: patent US20180250295A1, “Treatment of Motor and Movement Disorder Side Effects Associated with Parkinson's Disease Treatments” (Psychogenics, Inc., priority 2012, published 2018)
